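All cell lines were grown in 96-well plates and treated with compound for 48 hours. The concentration for 50% growth inhibition is given as GI50.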 Active and inactive are the calls of the source. Cut-off read from the data, not from the text of the source: active = GI50 up to about 1.1 µM and inactive = higher.
Legend:
Assay in all cases: NCI anticancer screen, dose series, 48 h
A498 = tested on: A498
A549 = tested on: A549
ACHN = tested on: ACHN
CAKI-1 = tested on: CAKI-1
CCRF-CEM = tested on: CCRF-CEM
COLO 205 = tested on: COLO 205
DLD-1 = tested on: DLD-1
DMS-114 = tested on: DMS-114
HCC 2998 = tested on: HCC 2998
HCT-116 = tested on: HCT-116
HCT-15 = tested on: HCT-15
HL-60 = tested on: HL-60
HOP-62 = tested on: HOP-62
HOP-92 = tested on: HOP-92
HT-29 = tested on: HT-29
IGROV-1 = tested on: IGROV-1
K562 = tested on: K562
KM-20L2 = tested on: KM-20L2
KM12 = tested on: KM12
M14 = tested on: M14
M19-MEL = tested on: M19-MEL
MOLT-4 = tested on: MOLT-4
Malme-3M = tested on: Malme-3M
NCI-H226 = tested on: NCI-H226
NCI-H23 = tested on: NCI-H23
NCI-H460 = tested on: NCI-H460
OVCAR-3 = tested on: OVCAR-3
OVCAR-4 = tested on: OVCAR-4
OVCAR-5 = tested on: OVCAR-5
OVCAR-8 = tested on: OVCAR-8
RPMI-8226 = tested on: RPMI-8226
RXF 393 = tested on: RXF 393
SF-268 = tested on: SF-268
SF-295 = tested on: SF-295
SF-539 = tested on: SF-539
SK-MEL-28 = tested on: SK-MEL-28
SK-MEL-2 = tested on: SK-MEL-2
SK-MEL-5 = tested on: SK-MEL-5
SK-OV-3 = tested on: SK-OV-3
SN12C = tested on: SN12C
SNB-19 = tested on: SNB-19
SNB-75 = tested on: SNB-75
SNB-78 = tested on: SNB-78
TK-10 = tested on: TK-10
U-251 = tested on: U-251
UACC-257 = tested on: UACC-257
UACC-62 = tested on: UACC-62
UO-31 = tested on: UO-31
XF498 = tested on: XF498
786-0 = tested on: 786-0
DMS-273 = tested on: DMS-273
EKVX = tested on: EKVX
HOP-18 = tested on: HOP-18
LOX IMVI = tested on: LOX IMVI
NCI-H522 = tested on: NCI-H522
SR = tested on: SR
SW-620 = tested on: SW-620

Cc1cc(C)nc(NS(=O)(=O)c2ccc(Nc3c4ccccc4nc4c(C(=O)N5CCN(CCOS(C)(=O)=O)CC5)cccc34)cc2)n1
GI50 (A498): > 100 µM (inactive)
GI50 (A549): > 100 µM (inactive)
GI50 (ACHN): > 100 µM (inactive)
GI50 (CAKI-1): > 100 µM (inactive)
GI50 (CCRF-CEM): 72.9 µM (inactive)
GI50 (COLO 205): > 100 µM (inactive)
GI50 (DLD-1): > 100 µM (inactive)
GI50 (DMS-114): 99.1 µM (inactive)
GI50 (HCC 2998): > 100 µM (inactive)
GI50 (HCT-116): > 100 µM (inactive)
GI50 (HCT-15): > 100 µM
GI50 (HL-60): > 100 µM (inactive)
GI50 (HOP-62): > 100 µM (inactive)
GI50 (HOP-92): > 100 µM (inactive)
GI50 (HT-29): > 100 µM (inactive)
GI50 (IGROV-1): > 100 µM (inactive)
GI50 (K562): 53.2 µM (inactive)
GI50 (KM-20L2): > 100 µM (inactive)
GI50 (KM12): > 100 µM (inactive)
GI50 (M14): > 100 µM (inactive)
GI50 (M19-MEL): > 100 µM (inactive)
GI50 (MOLT-4): 60.3 µM (inactive)
GI50 (Malme-3M): > 100 µM (inactive)
GI50 (NCI-H226): > 100 µM (inactive)
GI50 (NCI-H23): > 100 µM (inactive)
GI50 (NCI-H460): 84.9 µM (inactive)
GI50 (OVCAR-3): 96.4 µM (inactive)
GI50 (OVCAR-4): > 100 µM (inactive)
GI50 (OVCAR-5): > 100 µM (inactive)
GI50 (OVCAR-8): > 100 µM (inactive)
GI50 (RPMI-8226): > 100 µM (inactive)
GI50 (RXF 393): > 100 µM (inactive)
GI50 (SF-268): > 100 µM (inactive)
GI50 (SF-295): > 100 µM (inactive)
GI50 (SF-539): > 100 µM (inactive)
GI50 (SK-MEL-28): > 100 µM (inactive)
GI50 (SK-MEL-2): > 100 µM (inactive)
GI50 (SK-MEL-5): > 100 µM (inactive)
GI50 (SK-OV-3): > 100 µM (inactive)
GI50 (SN12C): > 100 µM (inactive)
GI50 (SNB-19): > 100 µM (inactive)
GI50 (SNB-75): 49.9 µM (inactive)
GI50 (SNB-78): > 100 µM (inactive)
GI50 (TK-10): > 100 µM (inactive)
GI50 (U-251): 67 µM (inactive)
GI50 (UACC-257): > 100 µM (inactive)
GI50 (UACC-62): > 100 µM (inactive)
GI50 (UO-31): > 100 µM (inactive)
GI50 (XF498): > 100 µM (inactive)

c1cnc2c(c1)-n1cccc1C1(CCCCC1)NN2
GI50 (786-0): > 100 µM (inactive)
GI50 (A549): 54 µM (inactive)
GI50 (ACHN): 88.3 µM (inactive)
GI50 (CAKI-1): 60 µM (inactive)
GI50 (CCRF-CEM): 41.5 µM (inactive)
GI50 (COLO 205): > 100 µM (inactive)
GI50 (DMS-114): 53.1 µM (inactive)
GI50 (DMS-273): 46.5 µM (inactive)
GI50 (EKVX): 82.2 µM (inactive)
GI50 (HCC 2998): > 100 µM (inactive)
GI50 (HCT-116): 59.8 µM (inactive)
GI50 (HCT-15): 37.4 µM
GI50 (HL-60): 93.8 µM (inactive)
GI50 (HOP-18): 8.18 µM (inactive)
GI50 (HOP-62): > 100 µM (inactive)
GI50 (HT-29): > 100 µM (inactive)
GI50 (K562): 45.1 µM (inactive)
GI50 (KM12): 99.1 µM (inactive)
GI50 (LOX IMVI): 50 µM (inactive)
GI50 (M14): > 100 µM (inactive)
GI50 (MOLT-4): 24.5 µM (inactive)
GI50 (Malme-3M): 62.1 µM (inactive)
GI50 (NCI-H226): > 100 µM (inactive)
GI50 (NCI-H460): 61.5 µM (inactive)
GI50 (NCI-H522): 63.1 µM (inactive)
GI50 (OVCAR-3): 86.3 µM (inactive)
GI50 (OVCAR-4): > 100 µM (inactive)
GI50 (OVCAR-5): > 100 µM (inactive)
GI50 (OVCAR-8): > 100 µM (inactive)
GI50 (RPMI-8226): 47.9 µM (inactive)
GI50 (SF-268): > 100 µM (inactive)
GI50 (SF-295): 69.2 µM (inactive)
GI50 (SF-539): > 100 µM (inactive)
GI50 (SK-MEL-28): > 100 µM (inactive)
GI50 (SK-MEL-2): > 100 µM (inactive)
GI50 (SK-MEL-5): 71.3 µM (inactive)
GI50 (SN12C): > 100 µM (inactive)
GI50 (SNB-19): > 100 µM (inactive)
GI50 (SNB-75): > 100 µM (inactive)
GI50 (SR): 40 µM (inactive)
GI50 (SW-620): > 100 µM (inactive)
GI50 (TK-10): 75.3 µM (inactive)
GI50 (UACC-257): 48.4 µM (inactive)
GI50 (UO-31): 26.9 µM (inactive)
GI50 (XF498): 74.3 µM (inactive)

Reference: ChEMBL document CHEMBL1201862, “PubChem BioAssay data set” (2004)
